Measurements: ChEMBL document CHEMBL4706478, “Design, Synthesis, and Preclinical Evaluation of Fused Pyrimidine-Based Hydroxamates for the Treatment of Hepatocellular Carcinoma” (J Med Chem, 2018)
One block for each compound: values may come before it.

How the values were obtained:
[1] = AUC (0 to infinity) in Balb/c mouse at 50 mg/kg, iv by mass spectrometry; assay type: ADME, organism-based; parameters: route intravenous, time infinity, dose 50 mg/kg; settings: in vivo
[2] = AUC (0 to infinity) in Balb/c mouse at 50 mg/kg, po by mass spectrometry; assay type: ADME, organism-based; parameters: route oral, time infinity, dose 50 mg/kg; settings: in vivo
[3] = AUC (0 to infinity) in Balb/c mouse at 150 mg/kg, po by mass spectrometry; assay type: ADME, organism-based; parameters: route oral, time infinity, dose 150 mg/kg; settings: in vivo
[4] = Tmax in Balb/c mouse at 50 mg/kg, po by mass spectrometry; assay type: ADME, organism-based; settings: in vivo
[5] = Tmax in Balb/c mouse at 150 mg/kg, po by mass spectrometry; assay type: ADME, organism-based; settings: in vivo
[6] = Cmax in Balb/c mouse at 50 mg/kg, po by mass spectrometry; assay type: ADME, organism-based; parameters: route oral, dose 50 mg/kg; settings: in vivo
[7] = Cmax in Balb/c mouse at 150 mg/kg, po by mass spectrometry; assay type: ADME, organism-based; parameters: route oral, dose 150 mg/kg; settings: in vivo
[8] = Clearance in Balb/c mouse at 50 mg/kg, iv by mass spectrometry; assay type: ADME, organism-based; settings: in vivo
[9] = Volume of distribution at steady state in Balb/c mouse at 50 mg/kg, iv by mass spectrometry; assay type: ADME, organism-based; settings: in vivo, read-out: Vdss
[10] = Oral bioavailability in Balb/c mouse at 50 mg/kg by mass spectrometry; assay type: ADME, organism-based; settings: in vivo
[11] = Oral bioavailability in Balb/c mouse at 150 mg/kg by mass spectrometry; assay type: ADME, organism-based; settings: in vivo
physchem = settings: n-octanol/water, pH 7.4
in vitro [12] = settings: human, pooled liver microsomes
in vitro [13] = settings: mouse, liver microsomes
in vitro [14] = settings: rat, liver microsomes

AUC(0-inf) [1]: 16.7 µM·h
AUC(0-inf) [2]: 0.97 µM·h
AUC(0-inf) [3]: 9.06 µM·h
Tmax [4]: 10.2 min
Tmax [5]: 30 min
Cmax [6]: 3.9 µM
Cmax [7]: 10.1 µM
clearance [8]: 6.6 L/h/kg
Vd [9]: 3.06 L/kg
bioavailability [10]: 5.8%
bioavailability [11]: 18.1%
logD (physchem): 2.07
Compound: O=C(CCCCCCn1cnc2c(N3CCOCC3)nc(-c3cccc(CO)c3)nc21)NO

Compound: Nc1ncc(-c2nc(N3CCOCC3)c3ncn(CCCCCCC(=O)NO)c3n2)cn1
half-life at 1 h, 5 µM (in vitro [12]): > 60 min
half-life at 1 h, 5 µM (in vitro [13]): > 60 min
half-life at 1 h, 5 µM (in vitro [14]): 35 min

logD (physchem): 3.07
Compound: COc1ccc(-c2nc(N3CCOCC3)c3sc(CN(C)c4ncc(C(=O)NO)cn4)cc3n2)cn1 [FIMEPINOSTAT]

logD (physchem): 1.05
Compound: O=C(CCCCCCC(=O)Nc1ccccc1)NO [VORINOSTAT]
